Laboratory results taken from patent US20060135587A1, “Method and compounds for promoting healing and reducing inflammation” (priority 2002, published 2006).

Columns and labels:
[1] = test system: chronic active viral hepatitis; test: Clinical study in chronic active viral hepatitis; format: in vivo, human; settings: 600 mg a day orally
Procedure: 45 patients aged between 18 and 32 years old with chronic active viral hepatitis were divided into 4 groups and kept under observation. All patients had received conventional therapy, usually potassium orotate, riboxin and interferon prior to commencement of the trial.
The first group (10 patients) received conventional therapy for 20 days. Assessment of clinical and biochemical indicators and serology data was carried out repeatedly for 20 days after the beginning of treatment.
The second group (10 patients) received both conventional treatment and prednisolone at a dose of […] for 20 days. In this group the clinical-biochemical and serological analysis took place before the treatment, and 10 days and 20 days after the beginning of treatment.
The third group (10 patients) received both conventional treatment and Compound 2 administered orally at a dose of 600 mg a day for 20 days. The control clinical-biochemical and serological analysis was carried out 20 days after the beginning of treatment.
The fourth group (15 patients) received prednisolone either orally or intravenously at a dose of 15 mg a day for 10 days; then prednisolone was stopped and replaced by Compound 2 at a dose of 600 mg a day for 10 days. […]

[2] = test system: carbon tetrachloride-induced liver damage; test: Carbon tetrachloride-induced liver damage in rats; format: in vivo; settings: 20 mg/kg orally; CCl4 intoxication
Procedure: The prophylactic and therapeutic effects of Compound 2 on liver damage were examined in a carbon tetrachloride intoxication model. Liver dysfunction was induced by the […] injection of a liquid paraffin-based 50% carbon tetrachloride solution at a dose of 0.8 ml per 100 g of body mass daily for four days. Inbred male white rats weighing 200-220 g were treated with Compound 2 at a dose of 20 mg/kg given orally by intragastric tube on the eighth day after injection of carbon tetrachloride, and daily for four days thereafter. Control animals received carbon tetrachloride only. Animals were sacrificed 7 days after the last injection of carbon tetrachloride, when the morphological changes are most pronounced, and samples of liver were taken for histology.

[3] = test system: cryogenic injuries of the sigmoid colon; test: Cryogenic damage of the colon, model of ulcerative colitis; format: in vivo, rats; settings: day 7
Procedure: A model of cryogenic damage of the colon was used in this experiment to simulate ulcerative colitis. Cryogenic injuries of the sigmoid colon of rats were induced by pressing a metal rod of […] in diameter cooled in liquid nitrogen to the serous membrane of the colon for 10 seconds under ether anaesthesia.
Tests were performed on 67 male rats weighing 180-200 g, with 8 animals in each group. Animals were kept in separate cages, with normal food and water ad libitum. The test compounds were administered orally on the second day after the operation, and then daily until healing was complete. Compound 2 or Compound 6 was administered to test animals at a dose of 20-50 mg/kg. The following agents were used for comparison:
The nature of the healing of the ulcer injury was examined morphologically on days 1, 3 and 7. […] The inflammatory process extends beyond the injured area into the adjacent areas, and beyond the peritoneum into fatty connective tissue.

[4] = test system: cryogenic injury of the oral mucosa; test: Healing of mouth ulcers caused by cryogenic injury in rats; format: in vivo; settings: 50 mg/kg; morphological analysis
Procedure: A model of mouth ulcers using ulcers caused by cryogenic injury of the inner surface of the cheek was used for this purpose. Tests were performed on 110 male rats weighing 180-200 g, with 10 animals in each group. Ulcers were created in experimental animals by pressing a metal rod of 2.5 mm in diameter cooled in liquid nitrogen to the mucosa for 10 seconds under ether anaesthesia. Animals were kept in separate cages, with normal food and water ad libitum. Treatment was administered by spraying of the mucous membrane of the mouth, 24 hours after wounding and then daily until healing was complete. Compound 2 was administered to the animals at a dose of 50 mg/kg (2 ml of aqueous solution). The following groups of animals were used:
The progress of wound healing was examined morphologically on days 1, 3, 7 and 14. On the day 3 the lesions were progressively worse, resulting in the growth of necrotic changes with the formation of a wide necrotic zone at the bottom of the wound, and growth and expansion of acute inflammation involving the muscle, skin and mucosa beyond the wound area. On day 7, the wounds in half of the animals were partially cleared of the necrotic mass, accompanied by the development of granulation tissue at the bottom of the wound and in the adjacent mucosa. […]

## CC[n+]1cn(C)c(C(=O)NC)c1C(=O)NC.O=S(=O)([O-])c1ccccc1 [Compound 2, 1-methyl-3-ethyl-4,5-bis(N-methylcarbamoyl)-imidazolium benzenesulfonate]
[1]
  clinical picture and biochemical indicators: improves the clinical picture and normalizes biochemical indicators
[2]
  Average mitotic index: 0.021 ± 0.001 arbitrary
  Elimination of glycogen from damaged zones (arbitrary): 4.9 ± 0.4 arbitrary
  Necrosis of hepatocytes (arbitrary): 2.7 ± 0.3 arbitrary
[3]; 20 mg/kg orally
  cases with complete synchronous regeneration: 100%
[3]; 50 mg/kg
  animals with reduction of the wound area: 67%
[4]
  healing of cryogenic injury of the oral mucosa compared to untreated controls: more pronounced, earlier and more complete healing
